Data as given in the NIST ThermoML archive (doi:10.1016/j.fluid.2013.06.021).
Numbers after ± are expanded uncertainties.

Experiment: xn = mol fraction of the nth substance listed
Conditions: 101 kPa, Liquid; for speed of sound: Sing-around technique in a fixed-path interferometer; for mass density: Vibrating tube method; for viscosity: Capillary tube (Ostwald / Ubbelohde) method

CCCCOCCO [2-butoxyethan-1-ol] + CCCCO
Conditions	mass density [kg/m3]	speed of sound [m/s]	viscosity [mPa·s]
293.15 K, x1 = 0.0516	816.39 ± 0.12	1262.2 ± 0.71	–
293.15 K, x1 = 0.1011	822.44 ± 0.11	1266.6 ± 0.71	–
293.15 K, x1 = 0.1535	828.64 ± 0.11	1271.1 ± 0.71	–
293.15 K, x1 = 0.2027	834.27 ± 0.11	1275.2 ± 0.71	–
293.15 K, x1 = 0.2537	839.84 ± 0.11	1279.2 ± 0.71	–
293.15 K, x1 = 0.3027	844.99 ± 0.11	1282.9 ± 0.71	–
293.15 K, x1 = 0.4	854.57 ± 0.11	1289.8 ± 0.71	–
293.15 K, x1 = 0.5055	864.12 ± 0.1	1296.7 ± 0.71	–
293.15 K, x1 = 0.6054	872.48 ± 0.097	1302.5 ± 0.71	–
293.15 K, x1 = 0.7025	880.07 ± 0.091	1307.9 ± 0.71	–
293.15 K, x1 = 0.8042	887.49 ± 0.086	1313.2 ± 0.71	–
293.15 K, x1 = 0.8552	891.03 ± 0.084	1315.9 ± 0.71	–
293.15 K, x1 = 0.906	894.44 ± 0.082	1318.5 ± 0.71	–
293.15 K, x1 = 0.9526	897.48 ± 0.081	1320.9 ± 0.71	–
298.15 K, x1 = 0.0516	812.543 ± 0.12	1245.2 ± 0.71	2.586 ± 0.12
298.15 K, x1 = 0.1011	818.58 ± 0.12	1249.7 ± 0.71	2.553 ± 0.12
298.15 K, x1 = 0.1535	824.722 ± 0.11	1254.2 ± 0.71	2.536 ± 0.12
298.15 K, x1 = 0.2027	830.281 ± 0.11	1258.3 ± 0.71	2.524 ± 0.12
298.15 K, x1 = 0.2537	835.832 ± 0.11	1262.3 ± 0.71	2.516 ± 0.12
298.15 K, x1 = 0.3027	840.96 ± 0.11	1266.1 ± 0.71	–
298.15 K, x1 = 0.3028	–	–	2.516 ± 0.12
298.15 K, x1 = 0.4	850.503 ± 0.11	1272.9 ± 0.7	2.527 ± 0.12
298.15 K, x1 = 0.5055	860.043 ± 0.11	1279.7 ± 0.7	2.555 ± 0.12
298.15 K, x1 = 0.6054	868.393 ± 0.099	1285.6 ± 0.7	2.592 ± 0.12
298.15 K, x1 = 0.7025	875.94 ± 0.093	1290.9 ± 0.7	2.645 ± 0.12
298.15 K, x1 = 0.8042	883.317 ± 0.088	1296.2 ± 0.7	2.703 ± 0.12
298.15 K, x1 = 0.8552	886.83 ± 0.086	1298.8 ± 0.7	2.743 ± 0.12
298.15 K, x1 = 0.906	890.248 ± 0.084	1301.4 ± 0.7	2.785 ± 0.12
298.15 K, x1 = 0.9526	893.29 ± 0.082	1303.8 ± 0.7	2.835 ± 0.12
303.15 K, x1 = 0.0516	808.67 ± 0.12	1228.5 ± 0.7	2.269 ± 0.12
303.15 K, x1 = 0.1011	814.69 ± 0.12	1233 ± 0.7	2.243 ± 0.12
303.15 K, x1 = 0.1535	820.82 ± 0.11	1237.5 ± 0.7	2.235 ± 0.12
303.15 K, x1 = 0.2027	826.35 ± 0.11	1241.5 ± 0.7	2.234 ± 0.12
303.15 K, x1 = 0.2537	831.87 ± 0.11	1245.5 ± 0.7	2.229 ± 0.12
303.15 K, x1 = 0.3027	836.98 ± 0.11	1249.1 ± 0.7	–
303.15 K, x1 = 0.3028	–	–	2.235 ± 0.12
303.15 K, x1 = 0.4	846.49 ± 0.11	1255.9 ± 0.7	2.255 ± 0.12
303.15 K, x1 = 0.5055	855.99 ± 0.11	1262.6 ± 0.7	2.303 ± 0.12
303.15 K, x1 = 0.6054	864.3 ± 0.1	1268.6 ± 0.7	2.345 ± 0.12
303.15 K, x1 = 0.7025	871.83 ± 0.094	1274 ± 0.7	2.401 ± 0.12
303.15 K, x1 = 0.8042	879.17 ± 0.089	1279.4 ± 0.7	2.475 ± 0.12
303.15 K, x1 = 0.8552	882.67 ± 0.087	1282 ± 0.69	2.518 ± 0.12
303.15 K, x1 = 0.906	886.07 ± 0.085	1284.5 ± 0.69	2.564 ± 0.12
303.15 K, x1 = 0.9526	889.1 ± 0.084	1286.7 ± 0.69	2.607 ± 0.12
308.15 K, x1 = 0.0516	804.78 ± 0.12	1211.8 ± 0.69	2.029 ± 0.12
308.15 K, x1 = 0.1011	810.77 ± 0.12	1216.3 ± 0.69	2.008 ± 0.12
308.15 K, x1 = 0.1535	816.87 ± 0.12	1220.7 ± 0.69	1.994 ± 0.12
308.15 K, x1 = 0.2027	822.39 ± 0.11	1224.7 ± 0.69	1.98 ± 0.12
308.15 K, x1 = 0.2537	827.9 ± 0.11	1228.7 ± 0.69	1.966 ± 0.12
308.15 K, x1 = 0.3027	832.98 ± 0.11	1232.3 ± 0.69	–
308.15 K, x1 = 0.3028	–	–	1.965 ± 0.12
308.15 K, x1 = 0.4	842.45 ± 0.11	1239.1 ± 0.69	1.968 ± 0.12
308.15 K, x1 = 0.5055	851.91 ± 0.11	1245.9 ± 0.69	1.981 ± 0.12
308.15 K, x1 = 0.6054	860.19 ± 0.1	1251.9 ± 0.69	2.006 ± 0.12
308.15 K, x1 = 0.7025	867.68 ± 0.096	1257.4 ± 0.69	2.045 ± 0.12
308.15 K, x1 = 0.8042	875.01 ± 0.091	1262.8 ± 0.69	2.106 ± 0.12
308.15 K, x1 = 0.8552	878.5 ± 0.089	1265.3 ± 0.69	2.138 ± 0.12
308.15 K, x1 = 0.906	881.88 ± 0.087	1267.8 ± 0.69	2.175 ± 0.12
308.15 K, x1 = 0.9526	884.89 ± 0.085	1270 ± 0.69	2.204 ± 0.12
313.15 K, x1 = 0.0516	800.853 ± 0.12	1195.2 ± 0.69	–
313.15 K, x1 = 0.1011	806.824 ± 0.12	1199.7 ± 0.69	–
313.15 K, x1 = 0.1535	812.87 ± 0.12	1204.1 ± 0.69	–
313.15 K, x1 = 0.2027	818.34 ± 0.12	1208.2 ± 0.69	–
313.15 K, x1 = 0.2537	823.81 ± 0.12	1212.2 ± 0.69	–
313.15 K, x1 = 0.3027	828.88 ± 0.11	1215.9 ± 0.69	–
313.15 K, x1 = 0.4	838.34 ± 0.11	1222.7 ± 0.69	–
313.15 K, x1 = 0.5055	847.79 ± 0.11	1229.5 ± 0.69	–
313.15 K, x1 = 0.6054	856.04 ± 0.1	1235.4 ± 0.69	–
313.15 K, x1 = 0.7025	863.5 ± 0.097	1240.7 ± 0.68	–
313.15 K, x1 = 0.8042	870.78 ± 0.092	1246 ± 0.68	–
313.15 K, x1 = 0.8552	874.26 ± 0.09	1248.5 ± 0.68	–
313.15 K, x1 = 0.906	877.63 ± 0.089	1251 ± 0.68	–
313.15 K, x1 = 0.9526	880.64 ± 0.087	1253.2 ± 0.68	–
